Publication PMC6100113, “Involvement of CYP4F2 in the Metabolism of a Novel Monophosphate Ester Prodrug of Gemcitabine and Its Interaction Potential In Vitro” (Molecules : A Journal of Synthetic Chemistry and Natural …, 2018)

Tests used:
[1] = Metabolic stability in rat liver microsomes; format: in vitro ADME; settings: rat liver microsomes 0.2 mg/mL, with NADPH, 1 μM, 37 °C
Protocol: Stability of Compound-3 was first investigated in microsomal systems from human and rat. The microsomal protein and Compound-3 concentrations were optimized to 0.2 mg/mL and 1 µM, respectively. Before the start of the incubation, reaction mixtures containing phosphate buffer (100 mM, pH 7.4), microsomes and Compound-3 in a total volume of 50 µL were warmed up at 37 °C for 10 min. The reaction was started with the addition of NADPH at a final concentration of 1 mM. Incubations were terminated at a specified time with the addition of 100 µL ice-cold acetonitrile containing the internal standard. The samples were then centrifuged, and aliquots of 10 µL of the supernatants were transferred into liquid chromatography-tandem mass spectrometry (LC-MS/MS) for the analysis of Compound-3 levels.

[2] = Metabolite identification by UPLC/Triple TOF MS in rat liver microsomes; format: in vitro ADME; set-up: key: √: metabolites were detected by high-resolution mass spectrometry; settings: Compound-3 10 μM, 1 mg/mL microsomes, NADPH, 60 min, HRMS
Protocol: For metabolite identification, a higher concentration of Compound-3 (10 μM) was incubated with liver microsomes (1 mg/mL) in the presence of NADPH (1 mM) and primary human hepatocytes at a density of 1 × 10^6 cell/mL. Samples were collected at 0 min and 60 min with the addition of ice-cold acetonitrile. After vortexing and centrifugation, the supernatant was transferred into a new tube and evaporated to dryness. The samples were then reconstituted in 100 μL of water and methanol (v/v, 9:1). An aliquot of 10 μL of reconstituted solution was injected into UPLC/Triple TOF 5600^+ MS for metabolite identification.
Identification of Compound-3 metabolites was carried out using Acquity UPLC/Triple TOF 5600^+ system. Chromatographic separation for Compound-3 and its metabolites were achieved by an Acquity UPLC HSS T3 column (100 × 2.1 mm i.d., […]; Waters Corp.) maintained at 40 °C. The mobile phase was a mixture of 0.02% formic acid in 5 mM ammonium acetate (A) and methanol (B). The gradient elution was started from 2% B and maintained for 4 min, then increased linearly to 75% B over the next 4 min and maintained for 8 min. […] The flow rate was 0.4 mL/min and the eluent was monitored by UV detection at 280 nm.
For mass detection, a Triple TOF 5600^+ mass spectrometer (AB Sciex, Framingham, MA, USA) was operated in positive ion electrospray (ES-positive) mode with the source temperature at 500 °C and scan range from m/z 100 to 1000 Da. Other parameters were set as follows: ion spray voltage, 5500 V; decluttering potential, 80 V; curtain gas, 40 psi; ion source gas 1, 55 psi; and ion source gas 2, 50 psi. Collision energies of 25 and 65 eV were used for TOF MS and product ion scans, respectively, and a collision energy spread of 20 was used in the MS/MS analysis. Information-dependent acquisition (IDA), together with real-time multiple mass defect filter, was used to trigger acquisition of MS/MS spectra.

CYP4F2 [3] = target: T1, CYP4F2 (Homo sapiens, UniProt P78329); experiment: Formation kinetics of M4 (carboxylic acid) from Compound-3 by CYP4F2; format: in vitro ADME; settings: CYP4F2 10 nM, 10 min, uncompetitive substrate inhibition equation, estimated
T1 construct: purchased Corning Gentest
T1 sequence (P78329 5-520): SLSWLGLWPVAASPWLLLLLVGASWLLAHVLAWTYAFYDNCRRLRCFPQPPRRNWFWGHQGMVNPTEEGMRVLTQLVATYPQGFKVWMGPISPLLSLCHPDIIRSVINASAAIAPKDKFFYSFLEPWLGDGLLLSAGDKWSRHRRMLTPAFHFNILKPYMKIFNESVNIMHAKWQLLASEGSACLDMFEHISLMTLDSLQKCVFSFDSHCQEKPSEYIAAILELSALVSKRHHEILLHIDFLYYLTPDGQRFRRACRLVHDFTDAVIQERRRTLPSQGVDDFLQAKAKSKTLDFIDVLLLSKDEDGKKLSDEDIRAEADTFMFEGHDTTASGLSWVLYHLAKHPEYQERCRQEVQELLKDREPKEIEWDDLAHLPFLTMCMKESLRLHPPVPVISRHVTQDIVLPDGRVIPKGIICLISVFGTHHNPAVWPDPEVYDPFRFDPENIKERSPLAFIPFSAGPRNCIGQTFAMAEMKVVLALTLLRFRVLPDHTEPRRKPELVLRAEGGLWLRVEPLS
Protocol: To investigate the formation kinetics of carboxylic acid metabolite (M4) from Compound-3, varying concentrations of Compound-3 (0–10 µM) were incubated with 10 nM CYP4F2 and 1 mM NADPH in 100 mM phosphate buffer (pH 7.4). The reactions were carried at 37 °C for 10 min and terminated with the addition of ice-cold acetonitrile containing the internal standard. Samples were then centrifuged, and aliquots of 10 μL of the supernatants were analyzed by LC-MS/MS for M4 levels.
Kinetic parameters of Compound-3 in recombinant human CYP4F2 were calculated using Enzyme Kinetics Modules of SigmaPlot (Version 14.0, Systat Software, San Jose, CA, USA). An uncompetitive substrate inhibition equation was also used:V = (Vmax × [S])/{Km + [S] × (1 + [S]/Ki)}(2) where Ki is the disassociation constant describing the inhibitor-enzyme interaction.

CYP4F2 [4] = target: T1, CYP4F2; experiment: CYP4F2-mediated drug interaction (inhibition of CYP4F2); format: in vitro ADME; settings: substrate pafuramidine 1.5 μM, CYP4F2 10 nM, 5 min, DB775 formation; read-out: IC50, inhibition of CYP4F2 mediated metabolism of pafuramidine
Protocol: CYP4F2-mediated drug interactions were examined in two separate setting: pafuramidine as the substrate and Compound-3 as the inhibitor; and Compound-3 as the substrate and pafuramidine as the inhibitor. The reaction system contained 10 nM CYP4F2, 100 mM phosphate buffer (pH 7.4), 1 mM NADPH, and substrate (pafuramidine 1.5 μM or Compound-3 1 μM). Inhibitor (Compound-3 or pafuramidine) concentrations ranged from 0 to 10,000 nM. The incubation time was 5 min for pafuramidine and 10 min for Compound-3. Incubation temperature was 37 °C. LC-MS/MS analysis was performed as described above for the levels of DB775 or M4 (carboxylic acid metabolite of Compound-3).

tumor = settings: in vitro and in vivo testing in the preclinical setting; cited from earlier work

SMILES: CCCCCCCCCCCCCCCCCCOCCOP(=O)(O)OCC1OC(n2ccc(N)nc2=O)C(F)(F)C1O (centres unmarked) [Compound-3]
- disappearance in 60 min [1]: ~ 10%
- detected in matrix RLM [2]: √
- Ki (CYP4F2 [3]): 1.2 nM
- IC50 (CYP4F2 [4]): 100 nM
- antitumor activity as compared to gemcitabine itself and LY2334737 (tumor): enhanced antitumor activity
